Measurements: US20230049952A1, “METHODS AND COMPOUNDS FOR RESTORING MUTANT P53 FUNCTION” (PMV Pharmaceuticals, Inc., priority 2020, published 2023)

Test system: p53 signaling pathway in MT373 tumors
Assay: MT373 syngeneic sarcoma model: mouse p53 signaling pathway profiling panel
Format: in vivo

What does the source list for `CCn1c(C#CCNc2ccccc2)cc2cc(CNC3CCN(C)CC3)ccc21` [Compound 1, 1-Anilino-3-{1-ethyl-5-[(1-methyl-4-piperidylamino)methyl]-1H-indol-2-yl}-2-propyne]?
Casp2 fold increase or percent reduction vs vehicle control (75 mg/kg BIDx1, 24 h): 16.13 fold or %; Ccnb1 fold increase or percent reduction vs vehicle control (75 mg/kg BIDx1, 24 h): 65.51 fold or %; Ccne1 fold increase or percent reduction vs vehicle control (75 mg/kg BIDx1, 24 h): 29.87 fold or %; Ccng1 fold increase or percent reduction vs vehicle control (75 mg/kg BIDx1, 24 h): 4.63 fold or %; Ccnh fold increase or percent reduction vs vehicle control (75 mg/kg BIDx1, 24 h): 3.31 fold or %; Cdc25a fold increase or percent reduction vs vehicle control (75 mg/kg BIDx1, 24 h): 34.15 fold or %; Cdk1 fold increase or percent reduction vs vehicle control (75 mg/kg BIDx1, 24 h): 59.92 fold or %; Cdk4 fold increase or percent reduction vs vehicle control (75 mg/kg BIDx1, 24 h): 40.50 fold or %; Cdkn1a fold increase or percent reduction vs vehicle control (75 mg/kg BIDx1, 24 h): 5.16 fold or %; Cdkn2a fold increase or percent reduction vs vehicle control (75 mg/kg BIDx1, 24 h): 16.83 fold or %; Chek1 fold increase or percent reduction vs vehicle control (75 mg/kg BIDx1, 24 h): 52.36 fold or %; Cradd fold increase or percent reduction vs vehicle control (75 mg/kg BIDx1, 24 h): 5.90 fold or %; Cul9 fold increase or percent reduction vs vehicle control (75 mg/kg BIDx1, 24 h): 1.58 fold or %; Dapk1 fold increase or percent reduction vs vehicle control (75 mg/kg BIDx1, 24 h): 1.19 fold or %; Dnmt1 fold increase or percent reduction vs vehicle control (75 mg/kg BIDx1, 24 h): 17.60 fold or %; E2f1 fold increase or percent reduction vs vehicle control (75 mg/kg BIDx1, 24 h): 10.67 fold or %; E2f3 fold increase or percent reduction vs vehicle control (75 mg/kg BIDx1, 24 h): 27.77 fold or %; Egfr fold increase or percent reduction vs vehicle control (75 mg/kg BIDx1, 24 h): 28.18 fold or %; Egr1 fold increase or percent reduction vs vehicle control (75 mg/kg BIDx1, 24 h): 64.73 fold or %; Ep300 fold increase or percent reduction vs vehicle control (75 mg/kg BIDx1, 24 h): 3.09 fold or %; Ercc1 fold increase or percent reduction vs vehicle control (75 mg/kg BIDx1, 24 h): 18.66 fold or %; Esr1 fold increase or percent reduction vs vehicle control (75 mg/kg BIDx1, 24 h): 1.26 fold or %; Fadd fold increase or percent reduction vs vehicle control (75 mg/kg BIDx1, 24 h): 5.60 fold or %; Fas fold increase or percent reduction vs vehicle control (75 mg/kg BIDx1, 24 h): 1.45 fold or %; Fasl fold increase or percent reduction vs vehicle control (75 mg/kg BIDx1, 24 h): 10.36 fold or %; Foxo3 fold increase or percent reduction vs vehicle control (75 mg/kg BIDx1, 24 h): 3.58 fold or %; Gadd45a fold increase or percent reduction vs vehicle control (75 mg/kg BIDx1, 24 h): 19.41 fold or %; Hif1a fold increase or percent reduction vs vehicle control (75 mg/kg BIDx1, 24 h): 13.43 fold or %; Il6 fold increase or percent reduction vs vehicle control (75 mg/kg BIDx1, 24 h): 70.78 fold or %; Jun fold increase or percent reduction vs vehicle control (75 mg/kg BIDx1, 24 h): 38.98 fold or %; Kras fold increase or percent reduction vs vehicle control (75 mg/kg BIDx1, 24 h): 13.87 fold or %; Lig4 fold increase or percent reduction vs vehicle control (75 mg/kg BIDx1, 24 h): 1.17. fold or %; Mdm2 fold increase or percent reduction vs vehicle control (75 mg/kg BIDx1, 24 h): 2.76 fold or %; Mdm4 fold increase or percent reduction vs vehicle control (75 mg/kg BIDx1, 24 h): 1.07 fold or %; Mel1 fold increase or percent reduction vs vehicle control (75 mg/kg BIDx1, 24 h): 15.14 fold or %; Mlh1 fold increase or percent reduction vs vehicle control (75 mg/kg BIDx1, 24 h): 9.12 fold or %; Msh2 fold increase or percent reduction vs vehicle control (75 mg/kg BIDx1, 24 h): 29.40 fold or %; Myod1 fold increase or percent reduction vs vehicle control (75 mg/kg BIDx1, 24 h): 3.54 fold or %; Nf1 fold increase or percent reduction vs vehicle control (75 mg/kg BIDx1, 24 h): 16.46 fold or %; Nfkb1 fold increase or percent reduction vs vehicle control (75 mg/kg BIDx1, 24 h): 15.21 fold or %; Pcna fold increase or percent reduction vs vehicle control (75 mg/kg BIDx1, 24 h): 43.21 fold or %; Pmaip1 fold increase or percent reduction vs vehicle control (75 mg/kg BIDx1, 24 h): 3.81 fold or %; Ppm1d fold increase or percent reduction vs vehicle control (75 mg/kg BIDx1, 24 h): 1.26 fold or %; Prc1 fold increase or percent reduction vs vehicle control (75 mg/kg BIDx1, 24 h): 26.03 fold or %; Prkca fold increase or percent reduction vs vehicle control (75 mg/kg BIDx1, 24 h): 16.45 fold or %; Pten fold increase or percent reduction vs vehicle control (75 mg/kg BIDx1, 24 h): 1.18 fold or %; Pttg1 fold increase or percent reduction vs vehicle control (75 mg/kg BIDx1, 24 h): 1.07 fold or %; Rb1 fold increase or percent reduction vs vehicle control (75 mg/kg BIDx1, 24 h): 1.14 fold or %; Rela fold increase or percent reduction vs vehicle control (75 mg/kg BIDx1, 24 h): 32.18 fold or %; Rprm fold increase or percent reduction vs vehicle control (75 mg/kg BIDx1, 24 h): 1.77 fold or %; Serpinb5 fold increase or percent reduction vs vehicle control (75 mg/kg BIDx1, 24 h): 1.20 fold or %; Sesn2 fold increase or percent reduction vs vehicle control (75 mg/kg BIDx1, 24 h): 2.05 fold or %; Sfn fold increase or percent reduction vs vehicle control (75 mg/kg BIDx1, 24 h): 15.25 fold or %; Sirt1 fold increase or percent reduction vs vehicle control (75 mg/kg BIDx1, 24 h): 6.13 fold or %; Stat1 fold increase or percent reduction vs vehicle control (75 mg/kg BIDx1, 24 h): 1.08 fold or %; Tnf fold increase or percent reduction vs vehicle control (75 mg/kg BIDx1, 24 h): 24.76 fold or %; Traf1 fold increase or percent reduction vs vehicle control (75 mg/kg BIDx1, 24 h): 1.06 fold or %; Trp53bp2 fold increase or percent reduction vs vehicle control (75 mg/kg BIDx1, 24 h): 5.61 fold or %; Trp53 fold increase or percent reduction vs vehicle control (75 mg/kg BIDx1, 24 h): 18.16 fold or %; Apex1 fold increase or percent reduction vs vehicle control (75 mg/kg BIDx1, 48 h): 21.30 fold or %; Atm fold increase or percent reduction vs vehicle control (75 mg/kg BIDx1, 48 h): 18.31 fold or %; Atr fold increase or percent reduction vs vehicle control (75 mg/kg BIDx1, 48 h): 14.07 fold or %; Bag1 fold increase or percent reduction vs vehicle control (75 mg/kg BIDx1, 48 h): 42.29 fold or %; Bax fold increase or percent reduction vs vehicle control (75 mg/kg BIDx1, 48 h): 23.39 fold or %; Bbc3 fold increase or percent reduction vs vehicle control (75 mg/kg BIDx1, 48 h): 1.32 fold or %; Bid fold increase or percent reduction vs vehicle control (75 mg/kg BIDx1, 48 h): 1.21 fold or %; Birc5 fold increase or percent reduction vs vehicle control (75 mg/kg BIDx1, 48 h): 50.48 fold or %; Brca1 fold increase or percent reduction vs vehicle control (75 mg/kg BIDx1, 48 h): 31.46 fold or %; Brca2 fold increase or percent reduction vs vehicle control (75 mg/kg BIDx1, 48 h): 25.33 fold or %; Btg2 fold increase or percent reduction vs vehicle control (75 mg/kg BIDx1, 48 h): 11.23 fold or %; Casp2 fold increase or percent reduction vs vehicle control (75 mg/kg BIDx1, 48 h): 9.89 fold or %; Ccnb1 fold increase or percent reduction vs vehicle control (75 mg/kg BIDx1, 48 h): 59.73 fold or %; Ccne1 fold increase or percent reduction vs vehicle control (75 mg/kg BIDx1, 48 h): 5.97 fold or %; Ccng1 fold increase or percent reduction vs vehicle control (75 mg/kg BIDx1, 48 h): 9.36 fold or %; Ccnh fold increase or percent reduction vs vehicle control (75 mg/kg BIDx1, 48 h): 12.98 fold or %; Cdc25a fold increase or percent reduction vs vehicle control (75 mg/kg BIDx1, 48 h): 16.12 fold or %; Cdk1 fold increase or percent reduction vs vehicle control (75 mg/kg BIDx1, 48 h): 55.02 fold or %; Cdk4 fold increase or percent reduction vs vehicle control (75 mg/kg BIDx1, 48 h): 48.77 fold or %; Cdkn1a fold increase or percent reduction vs vehicle control (75 mg/kg BIDx1, 48 h): 1.03 fold or %; Cdkn2a fold increase or percent reduction vs vehicle control (75 mg/kg BIDx1, 48 h): 23.77 fold or %; Chek1 fold increase or percent reduction vs vehicle control (75 mg/kg BIDx1, 48 h): 37.45 fold or %; Cradd fold increase or percent reduction vs vehicle control (75 mg/kg BIDx1, 48 h): 13.67 fold or %; Cul9 fold increase or percent reduction vs vehicle control (75 mg/kg BIDx1, 48 h): 2.20 fold or %; Dapk1 fold increase or percent reduction vs vehicle control (75 mg/kg BIDx1, 48 h): 1.46 fold or %
